Test results taken from patent US20230364196A1, “METHODS FOR TREATING GRAFT-VERSUS-HOST DISEASE USING GLP-2 AGONISTS AND ANALOGUES THEREOF” (THE TRUSTEES OF COLUMBIA UNIVERSITY IN THE CITY OF NEW YORK, priority 2021, published 2023).
Entries after “also recorded” stand apart in the source; their conditions may differ.

How the values were obtained:
Format in all cases: in vivo, mouse
[1] = system: BALB/C mice, syngeneic transplant; assay: Innate immune cells of the lamina propria after syngeneic transplant; settings: for recovery of mature (P4) lamina propria macrophages: D+7, vs vehicle
Description: To assess the impact of GLP-2 on macrophage maturation in the absence of inflammatory GVHD, BALB/C mice were transplanted with T-cell depleted bone marrow from BALB/C donors and given daily S.C. injections of GLP-2 as mentioned above. […] P1-P4 macrophages were gated as CD45+CD19^−CD3-Ly6G^− and CD11b^+ or CD11c^+. Subsets of the “monocyte-waterfall” were gated as: P1: CD64^−/low Ly6C^+MHC II^− CX3CR1^−/low; P2: CD64^low/+Ly6C^+ MHC II^+ CX3CR1^−/low; P3: CD64^+ Ly6C^−MHC II^+ CX3CR1^−/low; P4: CD64^+Ly6C^−MHC II^+ CX3CR1^+. N=4 per treatment group.
Daily subcutaneous injection of GLP-2 increases the relative abundance of lamina propria ILCs in a process that appears to target type-3 ILCs (ILC3s). ILC3s are important immunomodulators of the lamina propria and intestinal stem-cell (ISC) niche via their production of IL-22, playing a role in ISC maintenance. […] ILCs were gated as CD45^+ CD19^− CD3^− Ly6G^− CD11b^− CD11c^− CD127^+, with subsets being assigned based on Tbet (ILC1), GATA-3 (ILC2) and RORgt (ILC3) expression.

[2] = system: healthy BALB/c mice; assay: Escalating elsiglutide doses in healthy mice (no irradiation or transplant)
Protocol: In this experiment elsiglutide at escalating doses (200-800 nmol/kg/d) was injected to healthy mice without irradiation or chemotherapy for 10 days.
In this experiment we also performed Ki67 stains to document the proliferation of crypt cells in response to elsiglutide (FIG. 7). In healthy mice treated with vehicle Ki67 immunoreactivity was predominantly confined to the crypts where the stem cells reside.

[3] = system: graft-versus-host disease in lethally-irradiated BALB/c mice transplanted from B6 mice; assay: GVHD prevention after major MHC-mismatched allogeneic HSCT (2×10^6 splenic T-cells); settings: 800 nmol/kg/d
Description: (§1) To determine the effect of elsiglutide treatment on graft-versus-host disease in MHC-mismatched (allogeneic) murine hematopoietic stem-cell transplantation and identify the optimal dosing schedule, in this experiment BALB/c mice were lethally-irradiated and transplanted with bone marrow (5×10^6 cells) from B6 mice plus 2×10^6 splenic T-cells and treated with 800 nmol/kg/d elsiglutide at 4 different treatment schedules (syngeneic transplant and allogeneic transplant with vehicle were used as controls).

[4] = system: major MHC mismatched allogeneic transplant mice; assay: Mechanistic study in major MHC-mismatched allogeneic transplant (flow cytometry/histology of organs, serum cytokines); settings: for proportion of Th1 and CD8+ T-cells expressing T-bet (intraepithelial, small intestine): 800 nmol/kg daily subcutaneous; for engraftment of hematopoietic stem cells / donor cells in the spleen: post-transplant elsiglutide vs vehicle, D7
Description: BALB/C mice underwent lethal TBI. (850 cGy Cs137) and transplantation with 5×10^6 T-cell depleted bone marrow cells and 1×10^6 splenic T-cells from B6 donors (major MHC-mismatch model).
To further explore the mechanism behind the treatment effect observed in Example 4, we used the same experimental design as Example 4. […]

[5] = system: major MHC-mismatched GVHD model, BALB/c mice; assay: GVHD prevention after allogeneic HSCT with lower T-cell dose (0.5×10^6 splenic T cells)
Description: as §1
In a subsequent experiment, we used the same design as Example 3 but with T-cell depleted (TCD) bone marrow (BM) cells (5×10^6 cells) and a lower T-cell dose (0.5×10^6 splenic T cells) to allow examination of survival differences in a major MHC-mismatched GVHD model (aggressive GVHD model). As treatment effect was similar in this experiment for groups 3-4 and 5-6, these groups were combined into an “elsiglutide pre-transplant” group and an “elsiglutide post-transplant” group for presentation. In addition, animals originally designated to end treatment on D4 resumed treatment on D9 and continued until D30 or SAC. This time, the administration of elsiglutide beginning on D1 post-transplantation rescued 100% of mice from lethal GVHD along with improvement in GVHD scores and weight. […] Control mice (allogeneic transplant with vehicle control) had 100% mortality as expected and syngeneic control mice had 100% survival as expected (FIG. 10). This further supports the hypothesis that the timing of administration of the drug (post- vs. pre-radiation conditioning) is critical.

[6] = system: intestinal microbiota; assay: Intestinal microbiota by 16S rRNA sequencing of stool after lethal TBI and syngeneic transplantation
Protocol: Mice undergoing lethal TBI were treated with daily S.C. injections with Elsiglutide (GLP-2) and their stool collected for 16s rRNA sequencing on D+0 (baseline), D+14 and D+28 post-transplant.
To assess potential mechanisms for the differences in macrophage and T-cell phenotype, we examined the impact of GLP-2 on the intestinal microbiota. A syngeneic BALB/cJ model (similar to Example 1) was used to explore the effects of GLP-2 independent of GVHD. Stool samples from D+0, D+14, and D+28 were subjected to 16S rRNA sequencing. Vehicle-treated mice had distinct […] clusters at all time-points, showing a transplant effect on the microbiota (FIG. 28A). […] These taxa have been associated with anti-inflammatory properties and A. muciniphila abundance is linked to epithelial mucin production, which is increased by GLP-2.

[7] = system: BALB/c syngeneic transplant recipients after high-dose lethal radiation; assay: Syngeneic transplant after high-dose lethal radiation, different elsiglutide treatment schedules; settings: for apoptotic bodies within the crypts (TUNEL stain): D4 after radiation
Protocol: This experiment was carried out to determine the effect of daily elsiglutide administration (800 nmol/kg) on weight recovery and bowel weight in response to high dose radiotherapy using different treatment schedules. Syngeneic transplant was performed to rescue the animals from early death due to hematopoietic failure to be able to examine the mice at several time points. […] Treatment with elsiglutide increased small bowel mass after irradiation and syngeneic transplant. The longer the treatment the more pronounced the effect.
TUNEL stain was then performed to assess apoptosis of intestinal epithelial cells on D4 after radiation. We observed a small number of apoptotic bodies within the crypts of all mice at D4 post irradiation and transplantation (FIG. 4).

[8] = system: BALB/C mice, lethal TBI and allogeneic transplantation; assay: Cage conditions experiment in allogeneic transplant (co-housed, separate, separate plus antibiotics); settings: caged separately plus antibiotics D-2 to D+14; listed as GLP-2
Description: BALB/C mice underwent lethal TBI and allogeneic transplantation were assigned to 3 cage conditions to perturb their microbial composition: 1) vehicle and GLP-2 treated animals housed together, 2) treatment groups housed separately or 3) treatment groups housed separately and provided with neomycin and polymyxin-b in their drinking water from D-2 to D+14 post-transplant.
We then assessed the role of microbial communities in the protective effect of GLP-2 by conducting an allogeneic transplant with 3 caging conditions; 1) vehicle and GLP-2 treated mice caged together, 2) caged separately, or 3) caged separately plus oral antibiotics.

[9] = D+21 post-transplant, listed as Elsiglutide
[10] = post-transplant elsiglutide, allogeneic transplant

elsiglutide
ILC3 [1]: significant increase
recovery of mature (P4) lamina propria macrophages [1]: improved recovery
recovery of mature (P4) lamina propria macrophages ([1]; listed as GLP-2): increased shift
recovery / relative abundance of lamina propria ILCs ([1]; D+14): improved
recovery / relative abundance of lamina propria ILCs ([1]; D+14, listed as GLP-2): increases
Ki67 staining, difference between doses ([2]; 200-800 nmol/kg/d): no obvious difference
total body weight over baseline ([2]; 200-800 nmol/kg/d for 10 days, unirradiated): enhanced; also recorded: dose-dependent weight increase
weight of small and large bowel ([2]; 200-800 nmol/kg/d, by day 10): enhanced; also recorded: dose-dependent increase
Ki67 proliferation staining of crypt cells ([2]; vs vehicle-treated healthy mice): extended further out of the crypts into the villi
small bowel weight and length ([3]; 4 treatment schedules, p<0.0001, not dependent on schedule): increase
GVHD outcome ([3]; 2×10^6 T-cell dose, all mice except 1 from −D3-D4 group, euthanized by D8): developed severe GvHD by D6
proportion of Th1 and CD8+ T-cells expressing T-bet (intraepithelial, small intestine) [4]: lower proportion
proportion of Th1 and CD8+ T-cells expressing T-bet (intraepithelial, small intestine) ([4]; listed as Elsiglutide): reduced
interferon gamma in the serum ([4]; D+21 after transplant, vs vehicle): lower levels
co-stimulatory molecules and SIRPα on lamina propria macrophages ([4]; D+21 post-transplant): reduced expression of co-stimulatory molecules and increased SIRPα
lamina propria macrophages with tolerogenic/mature phenotype (higher CX3CR1, SIRP-alpha; lower CD80, CD86, CD206) ([4]; D+21 post-transplant): increase
Ly6C^high MHC-II^low immature macrophages [4, 9]: decrease; also recorded: significant reduction
lamina propria macrophages with tolerogenic/mature phenotype (higher CX3CR1, SIRP-alpha; lower CD80, CD86, CD206) [4, 9]: increased prevalence
recovery of innate lymphoid cell (ILC) subtypes in lamina propria ([4]; allogeneic setting, D+14 post-transplant): did not enhance recovery of any ILC subtype
T-cell activation ([4]; day 7 after transplant): reduced
engraftment of hematopoietic stem cells / donor cells in the spleen [4]: did not impair
engraftment of hematopoietic stem cells / donor cells in the spleen ([4]; listed as elsigltide): comparable engraftment
body weight loss [4, 10]: absence of weight loss
small bowel mass and length [4, 10]: increase
lung inflammation, macroscopic assessment (1×) ([4]; vs allogeneic transplant mice with vehicle): fewer areas of inflammation and healthier appearing lung tissue
CD44 expression on gut T-cells ([4]; vs vehicle): higher
expression of adhesion molecules on gut lamina propria T-cells (CD103 on CD4 T-cells) ([4]; vs vehicle): decreased; also recorded: lower
lung infiltrates and alveolar wall thickening (20×) ([4]; vs vehicle): decreased infiltration and less alveolar wall thickening
CD3+ T-cell infiltration in colon and small bowel (immunohistochemistry) ([4]; vs vehicle treated mice): decreased T-cell infiltration with more focal and less diffuse pattern of infiltration and fewer intraepithelial T-cells
T-EMRA cells in CD4 and CD8 T-cells, IEL and LPL ([4]; vs vehicle-treated mice): fewer
alveolar diameter and alveolar wall thickness ([4]; vs vehicle-treated mice): decreased inflammation and alveolar damage
inflammation in the liver portal triads ([4]; vs vehicle-treated mice, 20× magnification): decreased inflammation
GVHD scores and weight ([5]; elsiglutide beginning on D1 post-transplantation): improvement
mice rescued from lethal GVHD ([5]; elsiglutide beginning on D1 post-transplantation, through day 35): 100%
mice surviving long term ([5]; post-transplant elsiglutide group, after discontinuation of treatment (day 30)): 50%
GVHD scores and weight in surviving mice ([5]; pre-transplant elsiglutide): still had an effect
mice rescued from death ([5]; pre-transplant elsiglutide, through day 35): 40%
abundance of Bacteroidales S24-7 family ([6]; D+14 and D+28): significantly enriched
abundance of Akkermansia muciniphila ([6]; D+14 and D+28, listed as GLP-2): significantly enriched; also recorded: increased
β-diversity of stool microbiota by D+28 ([6]; continual treatment): shifts in β-diversity
β-diversity clusters of stool microbiota, D+0 vs D+14 ([6]; daily S.C. injections, listed as GLP-2): near-complete cluster overlap; also recorded: overlap between D+0 and D+14 samples
weight recovery after high dose radiotherapy ([7]; 800 nmol/kg daily, several treatment schedules): without a clear effect
weight recovery after radiation ([7]; 800 nmol/kg daily, treatment start on D-3): slightly worse than other schedules
small bowel mass after irradiation and syngeneic transplant ([7]; 800 nmol/kg daily, longer treatment more pronounced): increased
apoptotic bodies within the crypts (TUNEL stain) ([7]; pre-transplant treated animals (D-7), vs vehicle): increased abundance of apoptotic bodies
apoptotic bodies within the crypts (TUNEL stain) ([7]; treatment D-7 to D-3 then resumed on D1): very few apoptotic bodies
apoptotic bodies within the crypts (TUNEL stain) ([7]; treatment beginning D1 post-transplant): almost no apoptotic bodies
villi length and crypt depth (histology, distal small bowel) ([7]; after radiation, longer courses most pronounced): enhanced
effect of oral antibiotics (neomycin and polymyxin-b) on the survival benefit of treatment [8]: dampened the beneficial effect; also recorded: reduced the efficacy
